Results as given in patent publication US7048951B1, “Systems and methods for topical treatment with nitric oxide” (Nioxx, LLC, priority 1998, dated 2006).
Like-named read-outs stand apart in the source and are kept apart here.

Legend:
[1] = cited from earlier work
pKa of acids = format: physicochemical
[2] = preservative concentration 0.01% in carbomer gel
[3] = preservative concentration 0.1% in carbomer gel
[4] = preservative concentration 0.18% in carbomer gel (propylparaben 0.05% listed in next row)

| acid strength relative to nitrous acid (pKa of acids) | Compound | Appearance [1, 2] | Compatible [1, 2] | Appearance [1, 3] | Compatible [1, 3] | Appearance [1, 4] | Compatible [1, 4] |
| --- | --- | --- | --- | --- | --- | --- | --- |
|  | C[CH2][Hg][S]c1ccccc1C(=O)[O-].[Na+] [Thiomersal] | Clear | Yes | Clear | Yes |  |  |
|  | Benzalkonium Chloride | Clear | Yes | Cloudy | No |  |  |
|  | O=C([O-])c1ccccc1.[Na+] [Sodium Benzoate] | Clear | Yes | Cloudy | No |  |  |
|  | COC(=O)c1ccc(O)cc1 [Methylparaben] |  |  |  |  | Clear | Yes |
| about 30 times | O=C(O)/C=C\C(=O)O [Maleic acid] |  |  |  |  |  |  |
